{
  "source": "a melting point compilation (Tetko et al.; mined from patent text by program, amines drawn as free bases though some values may be those of a salt)",
  "data": [
    {"units": {"melting point": "°C"}, "values": [
      {"smiles": "CCCC1=C(C(=O)OCC)C(c2ccnc3ccccc23)c2c[nH]nc2N1", "note": "(centres undefined)", "melting point": 198},
      {"smiles": "CCCCCCCCCc1ccc(-c2ccc(OCC(C)CC)nn2)cc1", "note": "(centres undefined)", "melting point": 78},
      {"smiles": "C[C@H](CCC[C@@H](C)[C@H]1C(=O)C[C@H]2[C@@H]3CC=C4C[C@@H](O)CC[C@]4(C)[C@H]3CC[C@]12C)CN1C(=O)c2ccccc2C1=O", "melting point": 55},
      {"smiles": "COc1ccc(S(=O)(=O)N(CCC(=O)N2CCC(C(=O)O)CC2)C(CC(C)C)C(=O)NO)cc1", "note": "(centres undefined)", "melting point": "118 to 120"},
      {"smiles": "O=c1nc(NCc2ccccc2)sc2c([N+](=O)[O-])cc(C(F)(F)F)cc12", "melting point": "192 to 194"},
      {"smiles": "CCOCc1nc2c(N)nc3cc(OCCCN4CCCC4=O)ccc3c2n1CCCCNS(C)(=O)=O", "melting point": 157},
      {"smiles": "CCOC(=O)[C@@H](CC(=O)c1ccc2ccccc2c1)NC(C)=O", "melting point": "94 to 95"},
      {"smiles": "Cc1ccccc1C(=O)Nc1ccc(-n2nc(C3CC3)cc2C2CC2)cc1", "melting point": "128 to 130"},
      {"smiles": "NS(=O)(=O)c1ccc(-c2c(-c3cccc(F)c3)noc2CC(=O)O)cc1", "melting point": "242 to 250"},
      {"smiles": "CCN(CC)c1ccc(C=O)c(OCc2ccccn2)c1", "melting point": "78 to 81"},
      {"smiles": "O=[N+]([O-])c1cc(S(=O)c2ccc(-c3ccc(Br)cc3)cc2)ccc1Cl", "note": "(centres undefined)", "melting point": "173 to 175"},
      {"smiles": "Nc1nc2c(s1)CCN(CC1CC1c1ccccc1)CC2", "note": "(centres undefined)", "melting point": "109 to 113"},
      {"smiles": "COc1ccc(-c2ccc(Cl)cc2C#N)cc1C=O", "melting point": "187 to 189"},
      {"smiles": "COc1ccc(NC(=O)c2ccc(OC)c(C34CC5CC(CC(C5)C3)C4)c2)c(N)c1", "melting point": "211 to 213"},
      {"smiles": "Cc1ccc(S(=O)(=O)NCC(=O)NCc2ccc(C(c3cc(F)ccc3F)S(=O)(=O)c3ccc(Cl)cc3)nc2)cc1", "note": "(centres undefined)", "melting point": "217 to 218"},
      {"smiles": "O=c1ncc(C(F)(F)F)cn1COCc1ccc(Cl)cc1", "melting point": 120},
      {"smiles": "O=[N+]([O-])c1cccc(S(=O)(=O)N(CCO)CCO)c1", "melting point": "100 to 102"},
      {"smiles": "O=[N+]([O-])c1ccc2c(c1)CCN(Cc1ncn[nH]1)C2", "melting point": "163 to 166"},
      {"smiles": "Cc1cc(N)c(C(=O)OC(C)C)cc1Oc1ccc(OC(F)(F)F)cc1", "melting point": "71 to 72"},
      {"smiles": "OCC1=CC=C(COc2cccc(O)c2)SS1", "melting point": 116},
      {"smiles": "CC(=O)NCC1CN(c2cccc(Cl)n2)C1", "melting point": "136 to 138"},
      {"smiles": "CN(C)Cc1nnc(CO)n1-c1ccc(Cl)cc1C(=O)c1ccccc1", "melting point": "138 to 141"},
      {"smiles": "CC(=O)S[C@@H](CC1CCCCC1)C(=O)O", "melting point": "159 to 161"},
      {"smiles": "Cn1cc(C2=C(c3ccccc3)C(=O)NC2=O)c2ccccc21", "melting point": "230 to 232"},
      {"smiles": "COc1cccc(CCS(=O)c2nc3cnccc3[nH]2)c1", "note": "(centres undefined)", "melting point": "125 to 128"},
      {"smiles": "CC(=O)NC1CCCn2c1c(C)c1ccccc12", "note": "(centres undefined)", "melting point": "158 to 160"},
      {"smiles": "Cc1cccc(Nc2ccccc2C=NO)c1C", "melting point": "107 to 108"},
      {"smiles": "Cc1ccccc1CC(=NC#N)NC(NC(=O)Cc1ccc(C#N)cc1)C(C)(C)C", "note": "(centres undefined)", "melting point": "199 to 201"},
      {"smiles": "Fc1ccccc1C1=NCc2n[nH]cc2-c2ccc(Cl)cc21", "melting point": "208 to 210"},
      {"smiles": "Cc1cc(-c2cc(C(F)(F)F)n3nc(CC#N)c(C#N)c3n2)ccc1Cl", "melting point": 238},
      {"smiles": "COc1nc2ccccc2c2c1ncn2CC(C)C", "melting point": "111 to 114"},
      {"smiles": "CC(=O)SC(CC(=O)c1ccc(Cl)cc1)C(=O)O", "note": "(centres undefined)", "melting point": "68 to 69"},
      {"smiles": "CCC(=O)Oc1cc(OC)cc(OC)c1C(=O)C=Cc1ccc(Cl)cc1", "melting point": 136},
      {"smiles": "CN(C)S(=O)(=O)OCCOc1ccc(Cl)cc1", "melting point": "54 to 57"},
      {"smiles": "CN(C)CC(=O)Nc1cccc2nc(NC3CCc4cc(F)ccc43)ccc12", "note": "(racemic)", "melting point": 164},
      {"smiles": "Cc1cc(S(=O)(=O)N(C)CC(O)(CCl)c2ccccc2)ccc1Cl", "note": "(centres undefined)", "melting point": "105 to 107"},
      {"smiles": "CNC(=S)C1(c2cnc3ccccc3c2)CCCCC1=O", "note": "(centres undefined)", "melting point": "235 to 236"},
      {"smiles": "O=c1[nH]c2cc(Cl)cc(OCCNCc3cccs3)c2[nH]1", "melting point": "179 to 180"},
      {"smiles": "C=C1CCC(C2OC(=O)NC2=O)CC1", "note": "(centres undefined)", "melting point": "63 to 64"},
      {"smiles": "C=C(C)CSc1nc2c(cc1C#N)C(=O)CCC2", "melting point": "85 to 86"},
      {"smiles": "O=S(=O)(Nc1cc(C(F)(F)F)ccc1-c1cc(Oc2ccc3cccnc3c2)ncn1)c1ccccc1", "melting point": "168 to 170"},
      {"smiles": "CCCCNc1nc(C)c(C(=O)c2ccc(N)c(N)c2)s1", "melting point": "127 to 130"},
      {"smiles": "Cc1[nH]cnc1Cc1cccc(CO)c1O", "melting point": "126 to 130"},
      {"smiles": "CCCCCC(O)CCN1C(=O)NC(=O)C1CCCCCCC(=O)O", "note": "(centres undefined)", "melting point": "63 to 65"},
      {"smiles": "CCC(C)(C)c1cc(-c2ccc(CC3SC(N4CCOCC4)=NC3=O)s2)ccc1O", "note": "(centres undefined)", "melting point": "200 to 202"},
      {"smiles": "CCCCCCCCCCCCCCCCCCOCC(COC(c1ccccc1)(c1ccccc1)c1ccccc1)OC(=O)N1CCOCC1", "note": "(centres undefined)", "melting point": "78 to 79"},
      {"smiles": "Cc1cnn(CN(C(=O)CCl)c2c(C)cccc2C)c1", "melting point": 100},
      {"smiles": "CSc1c(C)[nH]c2cccc([N+](=O)[O-])c12", "melting point": "148 to 150"},
      {"smiles": "O=C(CCl)NNC1=Nc2ccc(Cl)cc2N(c2ccccc2)C(=O)C1", "melting point": "210 to 215"},
      {"smiles": "CC(C)N1CC2(COc3ccc(N)cc3OC2)OC1=O", "note": "(centres undefined)", "melting point": "157 to 159"},
      {"smiles": "CC(C)(CO)NS(=O)(=O)c1cccc(NC(=O)c2cnn3c(C(F)(F)F)cc(-c4ccc(Cl)cc4)nc23)c1", "melting point": 271},
      {"smiles": "N#Cc1ccccc1NC(=O)C1CCCCC1", "melting point": "135 to 137"},
      {"smiles": "COc1cccc2c1CCCC2=NNc1nc(-c2ccc(Cl)cc2Cl)cs1", "melting point": 200},
      {"smiles": "CC1CC(=O)NN=C1c1ccc(NC2=NCCN2)c(Br)c1", "note": "(centres undefined)", "melting point": "265 to 267"},
      {"smiles": "CCOc1cc(OCc2nc(-c3ccco3)oc2C)ccc1CCl", "melting point": "145 to 146"},
      {"smiles": "CCNC(=O)C1OC(n2cnc3c(NC(=O)Nc4ccc(S(=O)(=O)N5CCCCC5)cc4)ncnc32)C(O)C1O", "note": "(centres undefined)", "melting point": "176 to 178"},
      {"smiles": "O[C@H]1CC[C@H](Nc2nccc(-n3ncc4c(Br)cccc43)n2)CC1", "melting point": "200 to 202"},
      {"smiles": "COCCC1CCCCCc2c1oc(=O)c(C(c1ccccc1)C1CC1)c2O", "note": "(centres undefined)", "melting point": "78 to 80"},
      {"smiles": "C=CCC1(CC)C(=O)NC(=O)NC1=O", "melting point": "157 to 159"},
      {"smiles": "Oc1c(C(Nc2ccc(Cl)cn2)c2ccccn2)ccc2cccnc12", "note": "(centres undefined)", "melting point": "160 to 162"},
      {"smiles": "Cc1cccnc1C(CO)COc1ccc(CC2SC(=N)NC2=O)cc1", "note": "(centres undefined)", "melting point": "213 to 214"},
      {"smiles": "Cc1ccc2c(c1)CNC(=O)CC2", "melting point": "174 to 175"},
      {"smiles": "COc1ccc(OC)c2c(Nc3ccc(Cl)cc3F)c(C#N)cnc12", "melting point": "197 to 199"},
      {"smiles": "CNC1=NS(=O)(=O)N=C1NCCSCc1ccccn1", "melting point": "168 to 171"},
      {"smiles": "COCCn1c(=O)ccc2cnc(Nc3ccccc3)nc21", "melting point": "179 to 180"},
      {"smiles": "CCCc1c2c(c3oc(C(=O)O)cc(=O)c3c1O)CCCC2", "melting point": "226 to 227"},
      {"smiles": "CN1CN(C)C(=O)N(C)C1=O", "melting point": "88 to 90"},
      {"smiles": "O=Cc1c2ccccc2cc2cc(Cl)ccc12", "melting point": "122 to 124"},
      {"smiles": "COc1c(Cl)ccc2c1C(O)(c1ccccc1Cl)C(=O)N2", "note": "(centres undefined)", "melting point": "228 to 229"},
      {"smiles": "CCC=C(NC(=O)C1CC1(C)C)C(=O)O", "note": "(centres undefined)", "melting point": "154 to 156"},
      {"smiles": "CC(O)c1sccc1S(=O)(=O)N(C)c1cccc2cc(-c3nccs3)[nH]c12", "note": "(centres undefined)", "melting point": 193},
      {"smiles": "CC(C)(C)NS(=O)(=O)c1c(C(=O)O)sc2ccccc12", "melting point": 180},
      {"smiles": "CC(C)(C=CBr)C(=O)Nc1ccc(Cl)cc1", "melting point": "134 to 135"},
      {"smiles": "Fc1ccc(-c2nn3c(c2-c2ccncc2)NCC3)cc1", "melting point": "213 to 214"}
    ]}
  ]
}
